Experimental data as given in patent US20030087308A1, “Method for high through put screening using a small scale mill or microfluidics” (Elan Pharma International Limited, priority 2001, published 2003).
Where two headings read alike, the source gives them in different places.

Assays:
[1] = Quality of milled dispersion by photomicrography; assay type: physicochemical
Procedure: Analysis of resultant particle size was via photomicrography.
[…] The composition was then milled in a 10 mL chamber of a NanoMill™.

[2] = Particle size of nanoparticle suspension after small scale high energy milling (microscopy, laser light diffraction); assay type: physicochemical
[3] = PVP K29/32 and SLS 5:2:0.05, 6000 rpm
Procedure: The mixture was milled in a NanoMill™ (Elan Drug Delivery, Inc.). Using a media load of 100% at the maximum rpm of 6000 maximized the energy input.
Further calculations were based on a bulk density of 0.61 g/ml for PolyMill™ 500 μ media (Dow Chemical) and a void volume of 40%. Since the amounts were low and mixing difficult, PVP and SLS were prepared as 20% and 5% stock solutions, respectively. The calculations for milling in a 10 mL, 18 mL, and 26 mL milling chambers are summarized in the following chart: […]

[4] = 10 mL chamber, 25 mg naproxen, after 1 hr

Row | SMILES | resultant particle size ([1]; 10 mg, Pluronic F-108 at 5:2, 10 mL chamber, 5 to 30 min) | dispersion quality ([1]; 5 mg, 10 mL chamber, PVP K29/32 and SLS 5:2:0.05) | dispersion quality ([1]; 25 mg, 10 mL chamber, 15 min) | dispersion quality ([1]; 25 mg, 18 mL chamber, 15 min) | dispersion quality ([1]; 25 mg, 18 mL chamber, 30 min) | dispersion quality ([1]; 25 mg, 26 mL chamber, 5 min) | dispersion quality ([1]; 25 mg, 26 mL chamber, 15 min) | Particle Size ([2]; 50 mg milled, 15 min milling time) [nm] | Particle Size ([2]; 200 mg milled, 60 min milling time) [nm] | mean diameter of nanoparticle suspension ([2]; <50 mg of drug milled 15 min, small-volume high energy mill, unimodal distribution) | mean particle size (bimodal peak) [3, 4] [nm] | median particle size (bimodal peak) [3, 4] [nm] | single peak mean particle size ([3]; 18 mL chamber, 45 mg naproxen) [nm] | single peak mean particle size ([3]; 26 mL chamber, 65 mg naproxen) [nm]
1 | CCOC(=O)CCCCCOC(=O)c1c(I)c(NC(C)=O)c(I)c(NC(C)=O)c1I [Photogen, 6-ethoxy-6-oxohexyl-3,5-bis(acetamido)-2,4,6-triiodobenzoate] | predominantly sub-micron | – | – | – | – | – | – | – | – | – | – | – | – | –
2 | COc1ccc2cc([C@H](C)C(=O)O)ccc2c1 [Naproxen] | – | well dispersed nano-suspension | reasonable naproxen dispersion | reasonable naproxen dispersion | over-milled and aggregated | excellent homogeneity | clearly degenerating | 159 | 147 | less than 200 nm | 1496 | 354 | 314 | 630
